Where two headings read alike, the source gives them in different places.
Tests used:
[1] = Solubility of TBIs in common solvents; assay type: physicochemical
[2] = imidazole reagent, literature refs 58-60, cited from earlier work
[3] = organic solvent or mixture, solvent Ethanol, read-out: Solubility in Ethanol
[4] = solvent DI Water, read-out: Solubility in DI Water

solubility [1, 3]	solubility [1, 4]	Molecule	pKa [2]	further results
> 1000 µg/mL	> 1000 µg/mL	Cc1nc(C)n(C(=O)c2ccc(C(=O)n3c(C)nc(C)c3C)cc2)c1C [6b]		
> 1000 µg/mL	> 1000 µg/mL	CCc1nccn1C(=O)c1ccc(C(=O)n2ccnc2CC)cc1 [3b]		
< 1000 µg/mL	> 1000 µg/mL	CCc1nc(C)cn1C(=O)c1ccc(C(=O)n2cc(C)nc2CC)cc1 [7b]		
> 1000 µg/mL	> 1000 µg/mL	Cc1cn(C(=O)c2ccc(C(=O)n3cnc(C)c3)cc2)cn1 [4b]		
< 1000 µg/mL	< 1000 µg/mL	O=C(c1ccc(C(=O)n2ccnc2-c2ccccc2)cc1)n1ccnc1-c1ccccc1 [8b]		Solubility in typical aromatic organic solvents ([1]; e.g., toluene, xylene): moderately soluble
> 1000 µg/mL	> 1000 µg/mL	Cc1nccn1C(=O)c1ccc(C(=O)n2ccnc2C)cc1 [2b]		
> 1000 µg/mL	> 1000 µg/mL	O=C(c1ccc(C(=O)n2ccnc2)cc1)n1ccnc1 [1b, 1,1′-(1,4-Phenylene)bis[1-(1H-imidazol-1-yl)methanone]]		Solubility on contact with H2O ([1]; DI H2O): solubilize
< 1000 µg/mL	< 1000 µg/mL	CC(C)c1nccn1C(=O)c1ccc(C(=O)n2ccnc2C(C)C)cc1 [5b]		

Further lines, the molecule ahead of its results:

Molecule	solubility [1, 3]	solubility [1, 4]	pKa [2]	further results
CC(C)c1ncc[nH]1 [5a, 2-Isopropyl imidazole]			7.97	
Imidazole [1a]			~7	
CCc1ncc[nH]1 [3a, 2-Ethyl imidazole]			7.99-8	
Cc1c[nH]cn1 [4a, 4-Methyl imidazole]			7.69-7.80	
Cc1ncc[nH]1 [2a, 2-Methyl imidazole]			7.85-8.10	pKa ([2]; listed as 2-methylimidazole): 8.1
c1ccc(-c2ncc[nH]2)cc1 [8a, 2-Phenyl imidazole]			6.44	
CCc1nc(C)c[nH]1 [7a, 2-Ethyl-4-methyl imidazole]			8.68	
Cc1nc(C)c(C)[nH]1 [6a, 2,4,5-Trimethyl imidazole]			8.92	
